According to patent publication US20260014075A1, “IONIZABLE LIPID CONTAINING BIODEGRADABLE ESTER BOND AND LIPID NANOPARTICLES COMPRISING SAME” (ST PHARM CO., LTD., priority 2022, published 2026):

Tested on: HeLa cells
Assay: In vitro efficacy of mFLuc mRNA-encapsulated lipid nanoparticles, luminescence
Format: cell-based
Settings: 20 ng mFLuc-encapsulated LNP, 24 hours
Procedure: To determine the efficacy of mRNA-encapsulated lipid nanoparticles in vitro, screening was performed using lipid nanoparticles synthesized with various amine head groups.
The test was conducted by treating 20 ng of mFLuc (SEQ ID NO: 1)-encapsulated lipid nanoparticles into HeLa cells using each lipid nanoparticle synthesized with various amine headgroups (Compounds 1, 2, 4, and 5). The luminescence intensity was measured at 24 hours.

Row | SMILES | Relative luminescence mean value | expression effect (luminescence intensity), in words
1 | CCCCCC/C=C\COC(=O)CCCCCCCCN(CCCCCCCCC(=O)OC/C=C\CCCCCC)CCCN1CCN(CCCN(CCCCCCCCC(=O)OC/C=C\CCCCCC)CCCCCCCCC(=O)OC/C=C\CCCCCC)CC1 [Compound 4] | 39970.75 | –
2 | CCCCCC/C=C\COC(=O)CCCCCCCCN(CCCCCCCCC(=O)OC/C=C\CCCCCC)CCN1CCN(CCCCCCCCC(=O)OC/C=C\CCCCCC)CC1 [Compound 5] | 1022327.75 | highest expression effect
